In US11339156B2, “3-(1H-pyrazol-4-yl)pyridine allosteric modulators of the M4 muscarinic acetylcholine receptor” (Merck Sharp & Dohme Corp., priority 2017, dated 2022):

Biological target: T1, human M4 muscarinic acetylcholine receptor (Homo sapiens, UniProt P08173)
T1 construct: expressed in transfected cells
T1 sequence (P08173 1-479): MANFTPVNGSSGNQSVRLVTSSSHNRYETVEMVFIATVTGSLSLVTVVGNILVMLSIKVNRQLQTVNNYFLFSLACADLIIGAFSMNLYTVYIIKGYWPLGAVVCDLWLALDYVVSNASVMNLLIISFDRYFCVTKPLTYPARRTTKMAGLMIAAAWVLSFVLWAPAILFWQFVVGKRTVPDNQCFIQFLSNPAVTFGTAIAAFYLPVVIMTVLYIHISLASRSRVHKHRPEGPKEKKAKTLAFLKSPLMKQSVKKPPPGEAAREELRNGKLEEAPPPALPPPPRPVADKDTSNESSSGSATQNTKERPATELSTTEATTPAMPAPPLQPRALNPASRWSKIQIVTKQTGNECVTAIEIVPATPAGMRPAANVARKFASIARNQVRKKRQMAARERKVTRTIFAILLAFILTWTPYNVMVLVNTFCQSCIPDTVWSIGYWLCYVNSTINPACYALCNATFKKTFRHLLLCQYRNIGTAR
Assay: human FLIPR-based M4 PAM assay (CHO-K1 cells with human M4 receptor and Gαqi5, calcium dye fluorescence)
Type: cell-based
Settings: inflection point of 4 parameter logistic fit; acetylcholine added at 20% of maximum response; read-out: M4PAM IP
Procedure: In a typical experiment the M4 muscarinic acetylcholine receptor modulating activity of the compounds of the present invention was determined in accordance with the following experimental method. CHO-K1 cells stably transfected with human M4 receptor and chimeric G-protein Gαqi5 (Coward P, et al., Analytical Biochemistry, 270:242-248 (1999)) are thawed from liquid N2 storage, resuspended in growth medium, plated in black, clear bottom 384 well plates, and incubated 16-20 hours at 37° C., 5% CO2. On the day of assay, growth medium is removed, the cells are washed 2 times with wash buffer, and cells are incubated in dye loading buffer at 37° C., 5% CO2 for ˜1 hour. Following dye loading the cell plates are placed in a FLIPR Tetra instrument and while monitoring dye fluorescence (excitation […]), 10 uL of test substance at increasing concentrations is added, and fluorescence values are recorded for 4 min. Next, 10 uL of acetylcholine is added (final concentration calculated so as to achieve 20% of the maximum acetycholine response), and the fluorescence reading is continued for 3.5 min. In some cases, a third addition of acetylcholine (final concentration calculated to achieve 70% of the maximal acetylcholine response) is performed. The resulting dose response curves are fit to a 4 parameter logistic equation and the final result is determined as the inflection point (IP) of the curve
CHO-K1 cells stably transfected with human M4 receptor and chimeric G-protein Gαqi5 are thawed from liquid N2 storage, resuspended in growth medium, plated in black, clear bottom 384 well plates, and incubated 16-20 hours at 37° C., 5% CO2.
On the day of assay, growth medium is removed, the cells are washed 2 times with wash buffer, and cells are incubated in dye loading buffer at 37° C., 5% CO2 for ˜1 h. Following dye loading the cell plates are placed in a FLIPR Tetra instrument and while monitoring dye fluorescence ([…]), 10 uL of test substance at increasing concentrations is added, and fluorescence values are recorded for 4 min. Next, 10 uL of acetylcholine is added (final concentration calculated so as to achieve 20% of the maximum acetycholine response), and the fluorescence reading is continued for 3.5 min. In some cases, a third addition of acetylcholine (final concentration calculated to achieve 70% of the maximal acetylcholine response) is performed.

Row | EC50 | SMILES
1 | 108 nM | Cc1cn2ccc(-c3nc(C#N)ccc3-c3cnn(CC4(CC(C)C)CC4)c3)cc2n1 [Example 35, 6-(2-methylimidazo[1,2-a]pyridin-7-yl)-5-(1-{[1-(2-methylpropyl)cyclo-propyl]methyl}-1H-pyrazol-4-yl)pyridine-2-carbonitrile]
2 | 44.7 nM | COCc1cn2ccc(-c3nc(C#N)ccc3-c3cnn(CC(C)(C)C)c3)cc2n1 [Example 104, 5-[1-(2,2-dimethylpropyl)-1H-pyrazol-4-yl]-6-[2-(methoxymethyl)imidazo[1,2-a]pyridin-7-yl]pyridine-2-carbonitrile]
3 | 141 nM | Cc1cn2ccc(-c3nc(C#N)ccc3-c3cnn(CCC(F)(F)F)c3)cc2n1 [Example 40, 6-(2-methylimidazo[1,2-a]pyridin-7-yl)-5-[1-(3,3,3-trifluoropropyl)-1H-pyrazol-4-yl]pyridine-2-carbonitrile]
4 | 48.8 nM | Cc1ccc(-c2cnn(CC3CCC(F)(F)CC3)c2)c(-c2ccc3c(c2)C(=O)N(CC2CC2)C3)n1 [Example 14, 2-(cyclopropylmethyl)-6-(3-{1-[(4,4-difluorocyclohexyl)methyl]-1H-pyrazol-4-yl}-6-methylpyridin-2-yl)-2,3-dihydro-1H-isoindol-1-one]
5 | 243 nM | Cn1nc2ccc(-c3nc(C#N)ccc3-c3cnn(CC(C)(C)C)c3)cc2n1 [Example 69, 5-[1-(2,2-dimethylpropyl)-1H-pyrazol-4-yl]-6-(2-methyl-2H-benzotriazol-5-yl)pyridine-2-carbonitrile]
6 | 58.6 nM | N#Cc1ccc(-c2cnn(CC(F)(F)C3CC3)c2)c(-c2ccn3ccnc3c2)n1 [Example 1, 5-(1-(2-cyclopropyl-2,2-difluoroethyl)-1H-pyrazol-4-yl)-6-(imidazo[1,2-a]pyridin-7-yl)picolinonitrile]
7 | 93.1 nM | CN1Cc2ncc(-c3nc(C#N)ccc3-c3cnn(CC(C)(C)C)c3)cc2C1=O [Example 65, 5-[1-(2,2-dimethylpropyl)-1H-pyrazol-4-yl]-6-(6-methyl-5-oxo-6,7-dihydro-5H-pyrrolo[3,4-b]pyridin-3-yl)pyridine-2-carbonitrile]
8 | 102 nM | Cc1nc2cc(-c3nc(C#N)ccc3-c3cnn(CCC(F)(F)C(F)F)c3)ccc2n1C [Example 30, 6-(1,2-dimethyl-1H-benzimidazol-5-yl)-5-[1-(3,3,4,4-tetrafluorobutyl)-1H-pyrazol-4-yl]pyridine-2-carbonitrile]
9 | 62.2 nM | Cc1cn2ccc(-c3nc(C#N)ccc3-c3cnn(CC(F)C(F)(F)F)c3)cc2n1 (stereo not drawn) [Example 41, 6-(2-methylimidazo[1,2-a]pyridin-7-yl)-5-[1-(2,3,3,3-tetrafluoropropyl)-1H-pyrazol-4-yl]pyridine-2-carbonitrile]
10 | 126 nM | Cc1ccc(-c2cnn(Cc3ccccc3F)c2)c(-c2ccc3c(c2)C(=O)N(C2CC2)C3)n1 [Example 13, 2-cyclopropyl-6-{3-[1-(2-fluorobenzyl)-1H-pyrazol-4-yl]-6-methylpyridin-2-yl}-2,3-dihydro-1H-isoindol-1-one]
11 | 17.6 nM | Cc1ccc(-c2cnn(CC34CC(C3)C4)c2)c(-c2ccc3c(c2)C(=O)N(C)C3)n1 [Example 7, 6-{3-[1-(bicyclo[1.1.1]pent-1-ylmethyl)-1H-pyrazol-4-yl]-6-methylpyridin-2-yl}-2-methyl-2,3-dihydro-1H-isoindol-1-one]
12 | 121 nM | Cc1cn2ccc(-c3ncccc3-c3cnn(CC(C)(C)C)c3)cc2n1 [Example 87, 7-{3-[1-(2,2-dimethylpropyl)-1H-pyrazol-4-yl]pyridin-2-yl}-2-methylimidazo[1,2-a]pyridine]
13 | 64.3 nM | Cc1cc(-c2cnn(CC3(C(F)(F)F)CC3)c2)c(-c2ccn3ccnc3c2)nc1Cl [Example 60, 7-[6-chloro-5-methyl-3-(1-{[1-(trifluoromethyl)cyclo-propyl]methyl}-1H-pyrazol-4-yl)pyridin-2-yl]imidazo[1,2-a]pyridine]
14 | 26.5 nM | Cc1ccc(-c2cnn(CC3(C)CCC(F)(F)CC3)c2)c(-c2ccc3c(c2)C(=O)N(C)C3)n1 [Example 15, 6-(3-{1-[(4,4-difluoro-1-methylcyclohexyl)methyl]-1H-pyrazol-4-yl}-6-methylpyridin-2-yl)-2-methyl-2,3-dihydro-1H-isoindol-1-one]
15 | 741 nM | Cc1ccc(-c2cnn(CCC(C)C)c2C#N)c(-c2ccn3ccnc3c2)n1 [Example 136, 4-(2-imidazo[1,2-a]pyridin-7-yl-6-methylpyridin-3-yl)-1-(3-methylbutyl)-1H-pyrazole-5-carbonitrile]
16 | 30.7 nM | CC(C)C(F)(F)Cn1cc(-c2ccc(C#N)nc2-c2ccn3ccnc3c2)cn1 [Example 21, 5-[1-(2,2-difluoro-3-methylbutyl)-1H-pyrazol-4-yl]-6-imidazo[1,2-a]pyridin-7-ylpyridine-2-carbonitrile]
17 | 345 nM | CSc1cnc(-c2ccc3c(c2)C(=O)NC3)c(-c2cnn(CCC(C)C)c2)c1 [Example 137, 6-(3-(1-isopentyl-1H-pyrazol-4-yl)-5-(methylthio)pyridin-2-yl)isoindolin-1-one]
18 | 75.9 nM | Cc1ccc(-c2cnn(CC3CC3(C)C)c2)c(-c2ccn3ccnc3c2)n1 (stereo not drawn) [Example 109, 7-(3-{1-[(2,2-dimethylcyclopropyl)methyl]-1H-pyrazol-4-yl}-6-methylpyridin-2-yl)imidazo[1,2-a]pyridine]
19 | 76 nM | Cc1ccc(-c2cnn(CCC(C)C)c2)c(-c2ccc3c(c2)CN(C(=O)OC(C)(C)C)C3)n1 [Example 76, tert-butyl 5-{6-methyl-3-[1-(3-methylbutyl)-1H-pyrazol-4-yl]pyridin-2-yl}-1,3-dihydro-2H-isoindole-2-carboxylate]
20 | 76 nM | Cc1ccc(-c2cnn(CC3(C)CCCCC3)c2)c(-c2ccc3cn(C)nc3c2)n1 [Example 2, 2-methyl-6-(6-methyl-3-{1-[(1-methylcyclohexyl)methyl]-1H-pyrazol-4-yl}pyridin-2-yl)-2H-indazole]
21 | 44.7 nM | CN1Cc2ccc(-c3nc(C#N)c(F)cc3-c3cnn(CC4(C(F)(F)F)CC4)c3)cc2C1=O [Example 54, 3-fluoro-6-(2-methyl-3-oxo-2,3-dihydro-1H-isoindol-5-yl)-5-(1-{[1-(trifluoromethyl)cyclo-propyl]methyl}-1H-pyrazol-4-yl)pyridine-2-carbonitrile]
22 | 51.2 nM | CN1Cc2ccc(-c3nc(C#N)ccc3-c3cnn(CC4(C)CC4)c3)cc2C1=O [Example 50, 5-{1-[(1-methylcyclopropyl)methyl]-1H-pyrazol-4-yl}-6-(2-methyl-3-oxo-2,3-dihydro-1H-isoindol-5-yl)pyridine-2-carbonitrile]
23 | 55.8 nM | Cn1nnc2cc(-c3nc(C#N)ccc3-c3cnn(CC(C)(C)C)c3)ccc21 [Example 68, 5-[1-(2,2-dimethylpropyl)-1H-pyrazol-4-yl]-6-(1-methyl-1H-benzotriazol-5-yl)pyridine-2-carbonitrile]
24 | 130 nM | Cc1ccc(-c2cnn(CCC(C)(C)F)c2)c(-c2ccc3c(c2)C(=O)NC3)n1 [Example 10, 6-{3-[1-(3-fluoro-3-methylbutyl)-1H-pyrazol-4-yl]-6-methylpyridin-2-yl}-2,3-dihydro-1H-isoindol-1-one]
25 | 54.4 nM | CC(C)(C)Cn1cc(-c2ccc(C#N)nc2-c2ccn3cc(C(F)(F)F)nc3c2)cn1 [Example 66, 5-[1-(2,2-dimethylpropyl)-1H-pyrazol-4-yl]-6-[2-(trifluoromethyl)imidazo [1,2-a]pyridin-7-yl]pyridine-2-carbonitrile]
26 | 61.7 nM | Cc1cn2ccc(-c3nc(C#N)ccc3-c3cnn(CC(C)(C)CC(F)(F)F)c3)cc2n1 [Example 16, 6-(2-methylimidazo[1,2-a]pyridin-7-yl)-5-[1-(4,4,4-trifluoro-2,2-dimethylbutyl)-1H-pyrazol-4-yl]pyridine-2-carbonitrile]
27 | 136 nM | Cc1ccc(-c2cnn(Cc3ccccc3)c2)c(-c2ccc3c(c2)C(=O)N(CC2CC2)C3)n1 [Example 11, 6-[3-(1-benzyl-1H-pyrazol-4-yl)-6-methylpyridin-2-yl]-2-(cyclopropylmethyl)-2,3-dihydro-1H-isoindol-1-one]
